This test concerns nude mice, LX-1 lung xenograft intrarenal, tumor weight T/C. Description: NCI In Vivo Anticancer Drug Screen. Data for tumor model Human Lung LX-1 Xenograft (intrarenal inoculation) in NU/NU Swiss (nude) mice. To be noted: endpoint: mean tumor weight change, higher = larger tumour. The method, boiled down:
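Compound-treated mice carrying transplanted tumors were compared with vehicle-treated controls. Tumor size was the measured end point, and the value is the treated-group measurement divided by the control-group measurement (T/C).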
(In general: Xenograft models place foreign cells or tissue in a host animal.)

Setting [1] is: dose: 50.0 mg/kg/injection, schedule: Q01DX010 (sc), vehicle: Klucel (hydroxypropylcellulose) (HPC).
The mark [2] stands for this setting: dose: 200.0 mg/kg/injection, schedule: Q01DX010 (sc), vehicle: Klucel (hydroxypropylcellulose) (HPC).
[3] abbreviates: dose: 400.0 mg/kg/injection, schedule: Q01DX010 (sc), vehicle: Klucel (hydroxypropylcellulose) (HPC).
Where [4] appears, read: dose: 75.0 mg/kg/injection, schedule: Q04DX003 (sc), vehicle: saline with Tween-80.
[5] abbreviates: dose: 150.0 mg/kg/injection, schedule: Q04DX003 (sc), vehicle: saline with Tween-80.
The mark [6] stands for this setting: dose: 300.0 mg/kg/injection, schedule: Q04DX003 (sc), vehicle: saline with Tween-80.
The mark [7] stands for this setting: dose: 600.0 mg/kg/injection, schedule: Q04DX003 (sc), vehicle: saline with Tween-80.
The mark [8] stands for this setting: dose: 150.0 mg/kg/injection, schedule: Q04DX003 (sc), vehicle: saline.

“And” between values parts separate entries of the source, which are not always exact repeats. Identical values can stand only once. Inconclusive results are not listed.

Regarding `NC1=NCN(C2OC(CO)C(O)C2O)C(=O)N1` (stereo not given), the T/C runs as follows: (dose: 25.0 mg/kg/injection, schedule: Q01DX010 (sc), vehicle: saline) 117 % of control; (dose: 50.0 mg/kg/injection, schedule: Q01DX010 (sc), vehicle: saline) 174 % of control; (dose: 83.3 mg/kg/injection, schedule: Q04DX003 (ip), vehicle: saline) 117 % of control; (dose: 100.0 mg/kg/injection, schedule: Q01DX010 (ip), vehicle: saline) 62 % of control; (dose: 100.0 mg/kg/injection, schedule: Q01DX010 (sc), vehicle: saline) 86 % of control; (dose: 166.66 mg/kg/injection, schedule: Q04DX003 (ip), vehicle: saline) 89 % of control. The T/C is 56 % of control (dose: 333.33 mg/kg/injection, schedule: Q04DX003 (ip), vehicle: saline) and 39 % of control (dose: 666.65 mg/kg/injection, schedule: Q04DX003 (ip), vehicle: saline).
Consider `CN(C)/N=N/c1nc[nH]c1C(N)=O`, for which the T/C under setting [1] was 4 % of control; the T/C (dose: 100.0 mg/kg/injection, schedule: Q01DX010 (sc), vehicle: Klucel (hydroxypropylcellulose) (HPC)) was -84 % of control; the T/C under setting [2] is -100 % of control.
Turning to `CC(=O)O[C@H]1C(=O)[C@@]2(C)[C@H]([C@H](OC(=O)c3ccccc3)[C@]3(O)C[C@H](OC(=O)[C@H](O)[C@@H](NC(=O)c4ccccc4)c4ccccc4)C(C)=C1C3(C)C)[C@]1(OC(C)=O)CO[C@@H]1C[C@@H]2O`, the T/C runs as follows: (dose: 25.0 mg/kg/injection, schedule: Q01DX010 (sc), vehicle: Klucel (hydroxypropylcellulose) (HPC)) 40 % of control; under setting [3], 14 % of control.
On to `Nc1ccn(C2OC(CO)C(O)C2O)c(=O)n1` (stereo not given), for which the T/C reads like this: (dose: 31.25 mg/kg/injection, schedule: Q01DX010 (sc), vehicle: water) 73 % of control and 95 % of control; (dose: 600.0 mg/kg/injection, schedule: Q04DX003 (sc), vehicle: water) 47 % of control; (dose: 819.2 mg/kg/injection, schedule: Q04DX003 (sc), vehicle: water) 46 % of control; (dose: 1024.0 mg/kg/injection, schedule: Q04DX003 (sc), vehicle: water) 61 % of control; (dose: 1200.0 mg/kg/injection, schedule: Q04DX003 (sc), vehicle: water) 34 % of control; (dose: 1280.0 mg/kg/injection, schedule: Q04DX003 (sc), vehicle: water) 23 % of control. Moreover, the T/C (dose: 1600.0 mg/kg/injection, schedule: Q04DX003 (sc), vehicle: water) is 20 % of control.
`O=C1c2ccccc2C(=O)c2c(NCCNCCO)ccc(NCCNCCO)c21`: the T/C by setting is: (dose: 4.0 mg/kg/injection, schedule: Q01DX010 (sc), vehicle: water) 54 % of control; (dose: 16.0 mg/kg/injection, schedule: Q01DX010 (sc), vehicle: water) 65 % of control.
Turning to `O=C(Nc1ccc(C2=NCCN2)cc1)c1ccc(C(=O)Nc2ccc(C3=NCCN3)cc2)c(Cl)c1`, the T/C runs as follows: (dose: 12.5 mg/kg/injection, schedule: Q01DX010 (sc), vehicle: water) 74 % of control; (dose: 25.0 mg/kg/injection, schedule: Q01DX010 (sc), vehicle: water) 71 % of control; (dose: 50.0 mg/kg/injection, schedule: Q01DX010 (sc), vehicle: water) 34 % of control.
Regarding `NCCc1cc(O)c(O)c(O)c1`, the T/C is, setting by setting: (dose: 100.0 mg/kg/injection, schedule: Q04DX003 (sc), vehicle: saline) 83 % of control; (dose: 200.0 mg/kg/injection, schedule: Q04DX003 (sc), vehicle: saline) 96 % of control; (dose: 800.0 mg/kg/injection, schedule: Q04DX003 (sc), vehicle: saline) 91 % of control.
Consider `O=c1[nH]c(=O)n([C@H]2CCCO2)cc1F`, for which the T/C by setting is: under setting [1], 37 % of control; under setting [2], 93 % of control; under setting [3], 103 % of control.
Consider `C=C1C(C)C2C(Cc3ccccc3)NC(=O)C23C(OC(C)=O)C=CC(C)(O)C(=O)C(C)C/C=C/C3C1O` (stereo not given), for which the T/C reads like this: (dose: 7.5 mg/kg/injection, schedule: Q04DX003 (sc), vehicle: Klucel (hydroxypropylcellulose) (HPC)) 54 % of control; (dose: 15.0 mg/kg/injection, schedule: Q04DX003 (sc), vehicle: Klucel (hydroxypropylcellulose) (HPC)) 75 % of control.
Turning to `O=C1C(NCCO)=C(N2CC2)C(=O)C(NCCO)=C1N1CC1`, the T/C runs as follows: (dose: 0.5 mg/kg/injection, schedule: Q04DX003 (ip), vehicle: saline) 117 % of control; (dose: 1.5 mg/kg/injection, schedule: Q04DX003 (sc), vehicle: suspension in saline) 203 % of control; (dose: 2.0 mg/kg/injection, schedule: Q04DX003 (ip), vehicle: saline) 61 % of control; (dose: 4.0 mg/kg/injection, schedule: Q04DX003 (ip), vehicle: saline) 77 % of control.
As to `CN(C)CCN1C(=O)c2cccc3cc([N+](=O)[O-])cc(c23)C1=O`, the T/C by setting is: (dose: 9.0 mg/kg/injection, schedule: Q04DX003 (sc), vehicle: saline with Tween-80) 94 % of control; (dose: 18.0 mg/kg/injection, schedule: Q04DX003 (sc), vehicle: saline with Tween-80) 108 % of control; (dose: 36.0 mg/kg/injection, schedule: Q04DX003 (sc), vehicle: saline with Tween-80) 95 % of control.
As for `CCCCCCCCCCCCCCCCCC(=O)Nc1ccn(C2OC(CO)C(O)C2O)c(=O)n1` (stereo not given), the T/C runs as follows: under setting [4], 115 % of control; under setting [5], 41 % of control; under setting [6], 38 % of control; under setting [7], 30 % of control.
For the compound `COC(=O)c1ccoc1`, the T/C under setting [8] was 107 % of control.
Regarding `CN(C(=S)S(=O)(=O)C12CC3CC(CC(C3)C1)C2)c1ccccc1`, the T/C by setting is: (dose: 50.0 mg/kg/injection, schedule: Q04DX003 (sc), vehicle: Klucel (hydroxypropylcellulose) (HPC)) 164 % of control; (dose: 100.0 mg/kg/injection, schedule: Q04DX003 (sc), vehicle: Klucel (hydroxypropylcellulose) (HPC)) 161 % of control; (dose: 400.0 mg/kg/injection, schedule: Q04DX003 (sc), vehicle: Klucel (hydroxypropylcellulose) (HPC)) 176 % of control.
Consider `C1CC[N-]CC1.C1CC[N-]CC1.C1CC[N-]CC1.[Cl][Rh]([Cl])[Cl]`, for which the T/C runs as follows: (dose: 75.0 mg/kg/injection, schedule: Q04DX003 (sc), vehicle: saline) 78 % of control; under setting [8], 87 % of control.
Regarding `O=NN(CCF)C(=O)NC1CCCCC1`, the T/C (dose: 6.25 mg/kg/injection, schedule: Q04DX003 (sc), vehicle: Klucel (hydroxypropylcellulose) (HPC)) was 66 % of control and the T/C (dose: 12.5 mg/kg/injection, schedule: Q04DX003 (sc), vehicle: Klucel (hydroxypropylcellulose) (HPC)) is 39 % of control.
On to `CNC(=O)n1c(N)nc(-c2ccccc2)c1-c1ccccc1`, for which the T/C was 114 % of control (dose: 37.5 mg/kg/injection, schedule: Q04DX003 (sc), vehicle: saline with Tween-80); 122 % of control under setting [4]; 57 % of control under setting [5].
As to `C[n+]1ccc(Nc2ccc(NC(=O)c3ccc(Nc4cc[n+](C)c5ccc(N)cc45)cc3)cc2)cc1`, the T/C runs as follows: (dose: 12.5 mg/kg/injection, schedule: Q04DX003 (sc), vehicle: distilled water + Tween-80) 80 % of control; (dose: 25.0 mg/kg/injection, schedule: Q04DX003 (sc), vehicle: distilled water + Tween-80) 86 % of control; (dose: 50.0 mg/kg/injection, schedule: Q04DX003 (sc), vehicle: distilled water + Tween-80) 25 % of control; (dose: 100.0 mg/kg/injection, schedule: Q04DX003 (sc), vehicle: distilled water + Tween-80) 53 % of control.
`Nc1cc(Cl)c2[nH]cnc2n1`: the T/C was 121 % of control (dose: 200.0 mg/kg/injection, schedule: Q04DX003 (sc), vehicle: water) and 94 % of control (dose: 400.0 mg/kg/injection, schedule: Q04DX003 (sc), vehicle: water).
As to `COc1cc(C2c3cc4c(cc3C(O)C(CO)C2CO)OCO4)cc(OC)c1OC` (stereo not given), the T/C under setting [6] was 103 % of control; the T/C under setting [7] was 95 % of control; the T/C (dose: 1200.0 mg/kg/injection, schedule: Q04DX003 (sc), vehicle: saline with Tween-80) was 90 % of control; the T/C (dose: 2400.0 mg/kg/injection, schedule: Q04DX003 (sc), vehicle: saline with Tween-80) is 38 % of control.
